Reference: patent US9770423B2, “Modulation sAPP, sAAPα and BDNF levels in individuals diagnosed with FXS and ASD” (Indiana University Research and Technology Corp., priority 2012, dated 2017)
Values joined by “and” are separate entries in the source; they are usually repeats but may differ in a detail not shown here. Equal entries are not always repeated.

Experiments:
[1] = safety measures and adverse effects in the FXS open-label trial; format: in vivo, human
Excerpt: Safety assessment and monitoring began at screen when all subjects underwent a medical history, physical examination, and full psychiatric interview. A physical examination was also completed at end point. Vital signs, including height and weight, were obtained at each study visit. At screen, genetic testing for FXS was obtained if record of molecular testing utilizing Southern Blot and PCR was not available. At screen, week 6, and endpoint, laboratory tests of blood and urine, including CBC with differential and platelets, electrolyte panel, liver associated enzymes, lipid panel, and urine pregnancy test (in females) were obtained. An electrocardiogram was also obtained at screen and endpoint.
The pilot study ran for 10 weeks. Safety lab screens were carried out at weeks 6 and 10. Physiologic parameters measured during the safety screens were as follows: vital signs, LFTs, electrolyte panels, CBC with diff/plts, lipid panel, glucose, urinalysis and ECG.
In-person clinical visits were scheduled for every two weeks. Telephonic evaluations were carried out at weeks 1, 3, and 5. Each subject was evaluated for side effects at every interaction with the practitioner.

sAPP = experiment: plasma sAPP total by ELISA pre- and post-acamprosate; format: in vivo, human
Excerpt: For sAPP levels, the Test plasma samples should be measured soon after collection. […] Just before assay, we thawed the test samples at a low temperature and mixed them completely. The plasma samples should be diluted appropriately with the EIA buffer, if needed. Duplicate measurement of test samples and standard are recommended. We used test samples in neutral pH range, and avoided the contaminations of organic solvent that may affect the measurement. Regarding the standard to quantify levels of sAPP, we prepared a series of sAPP standards in EIA buffer by serial dilutions, from 0.39 ng/mL to 25 ng/mL.
The ELISA plate was pre-coated with anti-human APP (R12A1) mouse IgG (IBL). First, the wells for reagent blank was determined, and 100 μL each of “EIA buffer” or 10 mM NaHCO3 buffer was added into the wells. Likewise, wells were assigned for test sample blank, test sample and diluted standard. Then 100 μL each of test sample blank, test sample and dilutions of standard was added into the appropriate wells. The test sample included the plasma sample from each subject, which may vary from 5-25 μl, made up to 100 μL with the EIA buffer. Each pre-coated plates was incubated overnight at 4° C. after covering it tightly with a plate lid. The plate was kept onto a rocker with gentle shaking. The next day, each well of the pre-coated plate was vigorously washed with wash buffer containing 0.05% Tween20 in phosphate buffer. This was performed by filling each well with wash buffer, leaving the pre-coated plate laid for 15-30 seconds and removing wash buffer completely from the plate by snapping. This procedure was repeated five times. After removing the remaining liquid from all wells completely by snapping the plate onto paper towel, we added 100 μL of labeled antibody solution into the wells of test samples, diluted standard and test sample blank. HRP labeled anti-Human APP (R101A4) mouse IgG from IBL was used. The plate was incubated for 30 minutes at 4° C. after covering it with plate lid, and then washed the plate 5 times in the same manner as described before. To develop the color, 100 μL of the Chromogen (TMB solution) was adding into the wells, and the plate was incubated for 30 minutes at room temperature in the dark.
When the liquid started turning blue (by addition of the Chromogen), 100 μL of the Stop solution (1N H2SO4) was added into the wells. […] A plate reader was used and measurements were conducted at 450 nm against a reagent blank. […]
The first project enrolled 12 youth aged 5 to 17 years with fragile X syndrome and comorbid ASD in a 10-week open-label trial of acamprosate. […] Plasma sAPP total and sAPPα were determined in serum using the ELISA kit obtained from Immuno Biological Laboratories (IBL, Gumma, Japan). […]

adult males with FXS = details: of 3 adult males with FXS, cited from earlier work
[2] = test system: drinking-in-the-dark mouse model; details: cited from earlier work
[3] = caregiver reported, 12 youth with FXS

CC(=O)NCCCS(=O)(=O)O.[Ca] [acamprosate, Calcium Acetylhomotaurine]
Increased body rocking, mild (number of patients) ([1]; 12 youth with FXS): 1 | ECG including QTc interval ([1]; FXS trial): no change in the QTc interval | laboratory measures: lipids, electrolytes, liver function tests, blood counts ([1]; FXS trial): no clinically significant or mean changes | weight, pulse, or blood pressure ([1]; FXS trial): No clinically significant changes | overall tolerability ([1]; FXS trial, 12 subjects): well tolerated overall, with no severe or serious adverse effects | Constipation, mild (n subjects) [1, 3]: 1 | Diarrhea, mild (n subjects) [1, 3]: 1 | Increased Anxiety, mild (n subjects) [1, 3]: 1 | Increased Repetitive Behavior, mild (n subjects) [1, 3]: 2 | Insomnia, mild (n subjects) [1, 3]: 1 | Irritability, mild (n subjects) [1, 3]: 4 | Nightmares, mild (n subjects) [1, 3]: 1 | Rhinitis, mild (n subjects) [1, 3]: 1 | Urinary Urgency, mild (n subjects) [1, 3]: 1 | subjects who experienced a mild adverse event ([1]; nine of 12 subjects, FXS trial): 75% | fractional change in sAPP (total)-CP (sAPP; individual patients 1-6, baseline to Week 12): −0.8279 and −0.3066 and −0.0102 and −0.1029 and −0.437 and −0.544 | mean sAPP total post-treatment (sAPP; pooled 15 participants (9 FXS, 6 idiopathic ASD), pre-treatment 32.6±38.3 ng/mL, p=0.01): 21.4 ± 32.3 ng/mL | levels of both sAPP total and sAPPα, direction of change per sample (sAPP; pooled 15 subjects): reduced with treatment in every sample tested except in one subject with idiopathic ASD where sAPPα was unchanged | mean sAPP total levels at endpoint (sAPP; six subjects of the 12-week trial, baseline 34.7 ng/mL, p=0.02): 19.3 ng/mL | subjects with non-treatment limiting gastrointestinal distress (emesis and/or nausea) (adult males with FXS): Two subjects | subjects with significant positive clinical response as measured by the CGI-I (adult males with FXS; mean dose 1,221 mg/day, mean duration 21.3 weeks): 3 | alcohol intake [2]: reduced alcohol intake
